Reference: patent publication US4232037A, “2,6-Dialkoxybenzamides, intermediates, pharamaceutical compositions and methods for treatment of psychotic disorders” (priority 1978, dated 1980)
Structures can show the parent of a compound that is named as a salt. Where two headings read alike, the source gives them in different places.

Legend:
[1] = tested on: apomorphine induced stereotypies; assay: Block of apomorphine-induced stereotypies in rats (0-3 scale scoring); assay type: in vivo, Male Sprague-Dawley rats; conditions: for ED50: Rattus norvegicus, 1 h; for Stereotypies ED50: rat, hydrochloride, 60 min
Experimental: Male Sprague-Dawley rats weighing 225-275 g were used. […] The compounds were injected 60 minutes prior to apomorphine hydrochloride (1 mg/kg) which was injected subcutaneously into the neck. […] Directly after injection, the animals were placed in the cages, one in each cage. Scoring of the stereotypies were performed by two separate methods. The first scoring system was a modified version of the system introduced by Costall and Naylor (1973). […] Chewing, biting and | licking. In the second system the number of animals displaying hyperactivity caused by apomorphine were scored. […] Saline controls were always run simultaneously.

[2] = tested on: apomorphine induced hyperactivity; assay: Block of apomorphine-induced hyperactivity in rats (number of animals displaying hyperactivity); assay type: in vivo, Male Sprague-Dawley rats; conditions: for ED50: Rattus norvegicus, 1 h
Experimental: Male Sprague-Dawley rats weighing 225-275 g were used. […] The compounds were injected 60 minutes prior to apomorphine hydrochloride (1 mg/kg) which was injected subcutaneously into the neck.
Directly after injection, the animals were placed in the cages, one in each cage. Scoring of the stereotypies were performed by two separate methods. The first scoring system was a modified version of the system introduced by Costall and Naylor (1973). The strength of the stereotypy was scored on a 0-3 scale as follows:
In the second system the number of animals displaying hyperactivity caused by apomorphine were scored. […] Saline controls were always run simultaneously. ED50 's are in the first scoring system (0-3 scale), the doses which reduce the strength of the stereotypies by 50% over the observation period of 60 minutes. ED50 's of the second scoring system are the doses which reduce the number of animals showing hyperactivity by 50% over the observation period of 60 minutes.

[3] = tested on: DA receptors in the brain; assay: Apomorphine antagonism in rats (stereotypies and hyperactivity together, results in words); assay type: in vivo, Male Sprague-Dawley rats; conditions: rat, p.o., Table 3
[4] = experimental animals; cited from earlier work
[5] = in vivo; cited from earlier work
[6] = ip, i.p., 60 min before apomorphine hydrochloride 1 mg/kg s.c., 60 min observation, read-out: Stereotypies ED50
[7] = po, p.o., same test system, read-out: Stereotypies ED50
[8] = po, p.o., same test system, read-out: Stereotypies ED50 (in parentheses, mg/kg)
[9] = ip, i.p., 60 min before apomorphine hydrochloride 1 mg/kg s.c., 60 min observation, read-out: Hyperactivity ED50
[10] = po, p.o., same test system, read-out: Hypractivity ED50
[11] = po, p.o., same test system, read-out: Hypractivity ED50 (in parentheses, mg/kg)
[12] = i.p., 60 min before apomorphine hydrochloride 1 mg/kg s.c., 60 min observation

Row | Compound | ED50 [1, 6] | ED50 [1, 7] | ED50 [1, 8] | ED50 [2, 9] | ED50 [2, 10] | ED50 [2, 11] | also measured
1 | CCN1CCCC1CNC(=O)c1c(OC)ccc(Br)c1OC.Cl (racemic) [Example 7, N-Ethyl-2-(3-bromo-2,6-dimethoxybenzamidomethyl)pyrrolidine hydrochloride] | 23 µmol/kg | 47 µmol/kg | 19 mg/kg | 11 µmol/kg | 17 µmol/kg | 7 mg/kg | –
2 | CCN1CCCC1CNC(=O)c1c(OC)ccc(Cl)c1OC (racemic) [Example 8, N-Ethyl-2-(3-chloro-2,6-dimethoxybenzamidomethyl)pyrrolidine hydrochloride] | 47 µmol/kg | – | – | 30 µmol/kg | – | – | –
3 | CCN1CCCC1CNC(=O)c1c(OC)c(Br)cc(Br)c1OC.Cl (racemic) [Example 9, N-Ethyl-2-(3,5-dibromo-2,6-dimethoxybenzamidomethyl) pyrrolidine hydrochloride] | 5.3 µmol/kg | 8.2 µmol/kg | 4 mg/kg | 1.8 µmol/kg | 5.5 µmol/kg | 2.7 mg/kg | –
4 | CCN1CCCC1CNC(=O)c1c(OC)c(Cl)cc(Cl)c1OC (racemic) [Example 10, N-Ethyl-2-(3,5-dichloro-2,6-dimethoxybenzamidomethyl) pyrrolidine] | 5.8 µmol/kg | – | – | 3 µmol/kg | – | – | –
5 | CCN1CCCC1CNC(=O)c1c(OC)c(Cl)cc(Br)c1OC (racemic) [Example 11, N-Ethyl-2-(3-bromo-5-chloro-2,6-dimethoxybenzamidomethyl) pyrrolidine] | 6.2 µmol/kg | – | – | 3.9 µmol/kg | – | – | –
6 | CCN1CCCC1CNC(=O)c1c(OC)c(Br)cc(Br)c1OC (single isomer, unassigned) [Example 12, N-Ethyl-2-(3,5-dibromo-2,6-dimethoxybenzamidomethyl) pyrrolidine] | > 178 µmol/kg | – | – | ~11 µmol/kg | – | – | –
7 | CCN1CCCC1CNC(=O)c1c(OC)c(Br)cc(Br)c1OC (single isomer, unassigned) [Example 13, N-Ethyl-2-(3,5-dibromo-2,6-dimethoxybenzamidomethyl) pyrrolidine hydrochloride] | 3.3 µmol/kg | – | – | 0.33 µmol/kg | – | – | –
8 | CCN1CCCC1CNC(=O)c1c(OC)ccc(Br)c1OC.Cl (single isomer, unassigned) [Example 14, N-Ethyl-2-(3-bromo-2,6-dimethoxybenzamidomethyl) pyrrolidine hydrochloride] | – | – | – | – | – | – | Stereotypies ED50 [1, 12]: 5.6 µmol/kg
9 | CCN1CCCC1CNC(=O)c1c(OC)ccc(Br)c1OC.Cl (single isomer, unassigned) [Example 15, N-Ethyl-2-(3-bromo-2,6-dimethoxybenzamidomethyl) pyrrolidine hydrochloride] | – | – | – | – | – | – | Stereotypies ED50 [1, 12]: > 196 µmol/kg; Hyperactivity ED50 ([2]; rat, i.p., 60 min before apomorphine hydrochloride 1 mg/kg s.c., 60 min observation, hydrochloride, 60 min): ~ 123 μmol/kg
10 | CCN1CCCC1CNC(=O)c1cc(S(N)(=O)=O)ccc1OC (stereo not shown) [Sulpiride, reference compound] | 293 µmol/kg | > 586 µmol/kg | > 200 mg/kg | 50 µmol/kg | > 586 µmol/kg | > 200 mg/kg | activity after oral administration [3]: lost all activity; catalepsy [4]: weak catalepsy; extrapyramidal side effects [5]: weak extrapyramidal side effects
